Structures are written as SMILES.

This data set relates to U87MG tumors. Kind of data set: U87MG human glioblastoma xenograft model (Compound 1). As to conditions: positive control, 4 mg/kg Q3D IP, 18 days. Format: in vivo, SCID mice. The method, then:
U87MG Human Glioblastoma Xenograft Model (Compound 1). Efficacy Studies: Groups of female SCID mice bearing U87MG tumors (n=8-10/group) were dosed orally with vehicle or Compound 1 throughout the study, starting when tumor volumes reached approximately 200 mm^3. The twice daily (BID) dose groups were dosed with a 10-hour separation between morning and evening doses. In the positive control group, rapamycin was administered Q3D via intraperitoneal (IP) route. At the end of each study, plasma and/or tumor samples were collected.
Cell Line and Culture. U87MG cell line was obtained from American Tissue Culture Collection (ATCC) (Gaithersberg, Md.) and grown in growth medium containing MEM, 2 mM L-glutamine, 0.1 mM non-essential amino acids and 1 mM sodium pyruvate and 10% fetal bovine serum (FBS). The cells were detached from tissue culture flasks using trypsin-EDTA. After centrifugation, the cell pellets were suspended in phosphate buffered saline (PBS) and counted using a hemocytometer. The final volume was adjusted to 5×10^6 cells/0.1 mL of PBS.
Tumor Cell Inoculation. Mice were anesthetized with inhaled isoflurane and then inoculated with U87MG tumor cells subcutaneously on the right hind leg with 0.1 mL of a single cell suspension in PBS using a sterile 1 mL syringe fitted with a 26 gauge needle. Following inoculation, the mice were returned to microisolator cages
Randomization of Animals. Following inoculation, tumors were allowed to grow to about 200 mm^3 prior to randomization. The typical number of days required for tumors to reach 200 mm^3 was 14-15 days. The tumor of each animal was measured and animals with tumors ranging between 175-250 mm^3 were included in the study. Animals from the pool were then distributed randomly into various cages and the cages were randomly assigned to vehicle, positive control, or test article groups. All of the mice were tagged with metal ear tags on the right ear.
Test Article Preparation and Administration. Suspensions of Compound 1 were prepared in aqueous 0.5% CMC and 0.25% Tween-80. The formulations were homogenized using a Teflon™ pestle and mortar (Potter-Elvehjem tissue grinder). Between the doses, the formulated compound was stored under constant stirring using a magnetic stirrer at 4° C. in the dark. The test article and vehicle were administered by oral gavage. The positive control, rapamycin, was prepared as solution in 2% ethanol, 45% polyethyleneglycol 400, and 53% saline and administered by IP injection. Sterile syringes and gavage needles were used for compound administration. All of the procedures including injections were done in biosafety cabinets disinfected with 70% ethanol prior to use.
Tumor Measurements. Tumor volumes were determined prior to the initiation of treatment and were considered as the starting volumes. Thereafter, tumors were measured twice a week for the duration of the study. The long and short axes of each tumor were measured using a digital caliper in millimeters. Tumor volumes were calculated using the formula: width^2×length/2. The tumor volumes were expressed in cubic millimeters (mm^3).
Tumor Growth Delay (TGD) Calculations. Tumor growth delay is the difference in days for treated versus control tumors to reach a volume of 1000 mm^3. The TGD was calculated from the data plotted in a graph format.
Body Weight Measurements. Initial body weights were recorded prior to the initiation of treatment using a digital scale. The percent body weight change during the course of the study was calculated using initial body weight measurements. Body weights of each animal were measured twice a week at the same time as the tumor measurements. Body weights were measured more frequently if significant decreases were noted during the course of the study.
In general terms: A xenograft is tissue or cells of one species grown in another, often human tumour cells in immunodeficient mice.

Turning to `CO[C@H]1C[C@@H]2CC[C@@H](C)[C@@](O)(O2)C(=O)C(=O)N2CCCC[C@H]2C(=O)O[C@H]([C@H](C)C[C@@H]2CC[C@@H](O)[C@H](OC)C2)CC(=O)[C@H](C)/C=C(\C)[C@@H](O)[C@@H](OC)C(=O)[C@H](C)C[C@H](C)/C=C/C=C/C=C/1C` [rapamycin, reference compound], the “change in body weight” value is reported as “No significant change”.

For the origin of these results see patent publication US9493466B2, “Treatment of cancer with TOR kinase inhibitors” (Signal Pharmaceuticals, LLC, priority 2011, dated 2016).
